# Calls of active or inactive are those of the source.
# Key:
# [1] = target: T1, Carboxy-terminal domain RNA polymerase II polypeptide A small phosphatase 1 (Homo sapiens, UniProt Q9GZU7); experiment: inhibitors of CTDSP1, concentration-response testing, biochemical assay, absorbance-based, actives from ultra-high-throughput screening (AID 540297); assay type: functional
# T1 sequence (Q9GZU7 whole entry): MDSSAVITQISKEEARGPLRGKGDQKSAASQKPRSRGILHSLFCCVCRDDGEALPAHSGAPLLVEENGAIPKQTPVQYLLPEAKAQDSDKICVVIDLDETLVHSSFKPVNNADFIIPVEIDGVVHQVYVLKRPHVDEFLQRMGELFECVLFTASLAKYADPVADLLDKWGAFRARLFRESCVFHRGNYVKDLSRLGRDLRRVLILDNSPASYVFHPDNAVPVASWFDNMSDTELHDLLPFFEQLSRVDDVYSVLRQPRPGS
# Cytochrome P450 2C19 = Cytochrome P450 2C19 (Homo sapiens, UniProt P33261); experiment: Cytochrome panel assay with activity outcomes. Panel member name: p450-cyp2c19 Compounds with AC50 equal or less than 10 uM are considered active; assay type: functional; conditions: read-out: AC50
# Chain of Cytochrome P450 2C19 (P33261 whole entry): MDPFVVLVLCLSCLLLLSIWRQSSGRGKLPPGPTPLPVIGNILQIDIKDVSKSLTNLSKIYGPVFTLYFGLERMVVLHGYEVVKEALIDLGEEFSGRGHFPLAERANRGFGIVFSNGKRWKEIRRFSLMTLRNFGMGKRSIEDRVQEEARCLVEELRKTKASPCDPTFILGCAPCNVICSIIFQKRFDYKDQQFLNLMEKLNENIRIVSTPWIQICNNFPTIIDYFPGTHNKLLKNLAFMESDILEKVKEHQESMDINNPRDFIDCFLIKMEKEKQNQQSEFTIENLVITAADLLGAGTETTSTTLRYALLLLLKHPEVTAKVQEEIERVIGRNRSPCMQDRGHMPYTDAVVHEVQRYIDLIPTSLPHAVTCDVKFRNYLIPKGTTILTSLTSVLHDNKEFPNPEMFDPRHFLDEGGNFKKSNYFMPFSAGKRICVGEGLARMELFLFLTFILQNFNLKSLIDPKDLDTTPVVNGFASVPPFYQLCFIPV
# Cytochrome P450 2C9 = Cytochrome P450 2C9 (Homo sapiens, UniProt P11712)
# Chain of Cytochrome P450 2C9 (P11712 whole entry): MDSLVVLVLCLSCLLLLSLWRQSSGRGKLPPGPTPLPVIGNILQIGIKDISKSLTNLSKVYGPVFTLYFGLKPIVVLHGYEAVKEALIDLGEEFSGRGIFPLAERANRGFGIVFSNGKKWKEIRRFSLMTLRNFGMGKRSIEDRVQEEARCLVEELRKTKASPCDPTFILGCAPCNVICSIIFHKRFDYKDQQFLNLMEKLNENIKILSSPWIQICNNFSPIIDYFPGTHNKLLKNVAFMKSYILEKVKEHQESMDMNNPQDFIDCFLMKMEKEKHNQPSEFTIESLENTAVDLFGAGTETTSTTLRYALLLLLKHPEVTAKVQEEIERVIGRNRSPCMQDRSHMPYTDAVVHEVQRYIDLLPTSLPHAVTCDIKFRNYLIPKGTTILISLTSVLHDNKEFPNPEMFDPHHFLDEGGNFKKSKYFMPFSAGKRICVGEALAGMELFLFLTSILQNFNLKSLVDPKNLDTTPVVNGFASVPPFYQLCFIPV
# Cytochrome P450 3A4 = Cytochrome P450 3A4 (Homo sapiens, UniProt P08684);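 note: CYP3A4 tested as one member of a cytochrome P450 panel screen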
# Chain of Cytochrome P450 3A4 (P08684 whole entry): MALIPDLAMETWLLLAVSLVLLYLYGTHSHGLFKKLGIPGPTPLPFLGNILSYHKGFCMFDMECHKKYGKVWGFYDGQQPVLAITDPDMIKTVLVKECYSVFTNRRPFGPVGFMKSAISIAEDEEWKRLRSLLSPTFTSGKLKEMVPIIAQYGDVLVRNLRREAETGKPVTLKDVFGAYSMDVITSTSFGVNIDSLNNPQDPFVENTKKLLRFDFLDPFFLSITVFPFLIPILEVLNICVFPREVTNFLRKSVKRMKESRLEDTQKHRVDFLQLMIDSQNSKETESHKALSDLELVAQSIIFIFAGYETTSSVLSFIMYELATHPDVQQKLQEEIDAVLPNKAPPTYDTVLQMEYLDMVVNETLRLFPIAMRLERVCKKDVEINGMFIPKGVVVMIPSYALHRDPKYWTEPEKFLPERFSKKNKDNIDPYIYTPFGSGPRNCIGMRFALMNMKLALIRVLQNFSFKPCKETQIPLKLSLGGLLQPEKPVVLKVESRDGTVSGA
# Paired box protein Pax-8 = Paired box protein Pax-8 (Homo sapiens, UniProt Q06710); experiment: inhibitors of PAX8-driven TPO luciferase reporter, dose response, RMG-I cells, cherry-pick (AID 687027); assay type: functional, cell-based;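 note: luciferase reporter driven by Pax8 target thyroperoxidase promoter measured by SteadyGlo luminescence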
# Chain of Paired box protein Pax-8 (Q06710 whole entry): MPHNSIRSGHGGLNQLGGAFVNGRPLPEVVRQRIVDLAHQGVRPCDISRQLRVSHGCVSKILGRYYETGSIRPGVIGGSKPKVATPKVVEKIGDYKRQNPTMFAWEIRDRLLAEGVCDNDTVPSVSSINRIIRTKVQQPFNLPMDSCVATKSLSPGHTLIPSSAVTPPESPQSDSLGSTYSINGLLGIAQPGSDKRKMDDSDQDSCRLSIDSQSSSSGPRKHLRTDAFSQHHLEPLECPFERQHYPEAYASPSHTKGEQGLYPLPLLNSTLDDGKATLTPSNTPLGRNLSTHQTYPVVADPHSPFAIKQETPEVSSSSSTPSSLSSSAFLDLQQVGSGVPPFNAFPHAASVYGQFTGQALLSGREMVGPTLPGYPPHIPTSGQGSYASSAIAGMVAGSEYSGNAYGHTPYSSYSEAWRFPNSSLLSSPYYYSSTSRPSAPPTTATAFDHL
# [2] = NIH:OVCAR-3 ovarian cancer cell cytotoxicity, dose response, PAX8 inhibitor project, plate reader, dry powder samples (AID 743044); assay type: functional, cell-based
# cells [3] = assay type: functional
# cells [4] = assay type: functional, cell-based
# cells [5] = assay type: functional, cell-based; remark: listed apart in the source
# Fatty acid synthase [6] = target: T2, Fatty acid synthase (Homo sapiens, UniProt P49327); experiment: FAS thioesterase domain inhibitors, dose response, biochemical, endpoint fluorescence intensity, uHTS hits (AID 624327); assay type: functional;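 note: fluorescence from hydrolysis of an O-methyl fluorescein acyl ester substrate by the enzyme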
# T2 sequence (P49327 whole entry, the tested form may be a part): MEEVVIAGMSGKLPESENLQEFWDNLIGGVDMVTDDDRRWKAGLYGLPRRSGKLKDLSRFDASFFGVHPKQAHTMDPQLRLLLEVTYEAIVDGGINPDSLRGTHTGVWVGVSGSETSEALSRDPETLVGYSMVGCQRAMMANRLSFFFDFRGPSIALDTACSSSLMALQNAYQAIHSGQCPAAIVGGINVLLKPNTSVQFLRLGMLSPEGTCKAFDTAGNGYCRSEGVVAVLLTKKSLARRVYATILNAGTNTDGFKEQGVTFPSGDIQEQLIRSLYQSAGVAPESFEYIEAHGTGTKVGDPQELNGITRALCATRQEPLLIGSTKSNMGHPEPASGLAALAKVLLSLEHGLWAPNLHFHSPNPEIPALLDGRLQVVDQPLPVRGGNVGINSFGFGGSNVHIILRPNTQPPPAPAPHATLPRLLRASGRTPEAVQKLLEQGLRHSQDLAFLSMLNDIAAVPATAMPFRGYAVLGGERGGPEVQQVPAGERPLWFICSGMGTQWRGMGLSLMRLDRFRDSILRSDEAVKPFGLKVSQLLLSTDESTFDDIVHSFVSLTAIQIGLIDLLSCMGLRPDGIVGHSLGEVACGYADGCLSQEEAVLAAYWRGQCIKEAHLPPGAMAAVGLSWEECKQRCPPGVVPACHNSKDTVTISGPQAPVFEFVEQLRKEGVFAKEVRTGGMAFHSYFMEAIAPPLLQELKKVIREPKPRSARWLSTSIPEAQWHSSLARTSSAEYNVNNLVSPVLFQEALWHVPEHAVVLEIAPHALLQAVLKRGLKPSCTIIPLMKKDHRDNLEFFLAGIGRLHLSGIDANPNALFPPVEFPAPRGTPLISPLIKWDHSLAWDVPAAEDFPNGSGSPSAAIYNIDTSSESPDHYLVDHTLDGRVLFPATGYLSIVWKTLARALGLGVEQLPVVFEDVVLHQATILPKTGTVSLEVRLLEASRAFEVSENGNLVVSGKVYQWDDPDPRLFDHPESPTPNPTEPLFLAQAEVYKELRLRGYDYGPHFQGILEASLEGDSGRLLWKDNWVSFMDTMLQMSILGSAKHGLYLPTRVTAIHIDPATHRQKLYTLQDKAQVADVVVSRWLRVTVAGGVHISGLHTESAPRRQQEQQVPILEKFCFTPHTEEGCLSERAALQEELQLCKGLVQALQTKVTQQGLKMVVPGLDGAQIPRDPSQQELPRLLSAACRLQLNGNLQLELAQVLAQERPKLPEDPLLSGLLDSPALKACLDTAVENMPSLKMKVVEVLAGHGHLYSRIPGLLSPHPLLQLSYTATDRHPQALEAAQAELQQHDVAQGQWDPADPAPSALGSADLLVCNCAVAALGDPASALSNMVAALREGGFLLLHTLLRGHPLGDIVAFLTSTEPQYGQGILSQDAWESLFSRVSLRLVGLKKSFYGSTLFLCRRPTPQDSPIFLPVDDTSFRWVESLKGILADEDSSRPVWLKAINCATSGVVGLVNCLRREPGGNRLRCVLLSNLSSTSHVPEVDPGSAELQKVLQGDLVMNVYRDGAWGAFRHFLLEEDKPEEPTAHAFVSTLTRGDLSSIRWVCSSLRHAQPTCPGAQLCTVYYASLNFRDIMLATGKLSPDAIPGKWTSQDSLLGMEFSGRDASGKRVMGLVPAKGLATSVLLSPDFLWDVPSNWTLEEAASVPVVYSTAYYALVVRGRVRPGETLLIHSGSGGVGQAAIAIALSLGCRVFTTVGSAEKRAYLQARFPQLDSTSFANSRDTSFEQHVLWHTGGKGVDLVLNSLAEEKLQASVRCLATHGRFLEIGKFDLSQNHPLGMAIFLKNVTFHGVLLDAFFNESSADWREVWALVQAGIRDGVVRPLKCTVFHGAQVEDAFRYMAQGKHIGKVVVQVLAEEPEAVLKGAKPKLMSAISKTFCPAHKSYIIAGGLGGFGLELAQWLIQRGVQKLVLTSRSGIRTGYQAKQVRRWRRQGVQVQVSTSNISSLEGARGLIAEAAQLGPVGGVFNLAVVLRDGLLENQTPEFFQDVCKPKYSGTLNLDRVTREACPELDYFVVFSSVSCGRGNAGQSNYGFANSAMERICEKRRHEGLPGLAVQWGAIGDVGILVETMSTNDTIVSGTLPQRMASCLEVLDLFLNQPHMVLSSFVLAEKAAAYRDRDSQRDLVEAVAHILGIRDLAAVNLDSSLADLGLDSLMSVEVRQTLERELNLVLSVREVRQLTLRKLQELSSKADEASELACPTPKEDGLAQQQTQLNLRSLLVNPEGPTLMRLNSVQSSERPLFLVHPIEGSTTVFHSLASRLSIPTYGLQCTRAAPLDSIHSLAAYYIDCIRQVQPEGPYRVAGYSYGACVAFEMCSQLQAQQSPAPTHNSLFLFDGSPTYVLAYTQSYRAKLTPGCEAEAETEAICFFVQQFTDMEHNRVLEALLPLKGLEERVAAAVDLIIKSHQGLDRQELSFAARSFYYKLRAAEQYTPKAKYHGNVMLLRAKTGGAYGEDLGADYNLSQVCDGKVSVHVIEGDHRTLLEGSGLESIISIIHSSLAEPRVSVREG
# Fatty acid synthase [7] = target: T2, Fatty acid synthase; experiment: FAS thioesterase domain inhibitors, dose response, biochemical, kinetic fluorescence intensity (AID 624326); assay type: functional;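 note: rate of fluorescence rise from hydrolysis of a fluorogenic O-methyl fluorescein ester substrate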
# [8] = inhibitors of clade B AD8 Env fusion, dose response, cell-based, cherry-pick (AID 652062); assay type: functional;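 note: luciferase signal from cell-cell fusion driven by HIV-1 clade B AD8 Env; potency is for inhibitors of fusion seen as a drop in luminescence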
# BJ [9] = experiment: cytotoxicity toward BJ-TERT-LT-ST fibroblasts, dose response, cell-based, RAS-independent, luminescence (AID 1935); assay type: functional; conditions: Homo sapiens;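 note: BJ fibroblasts immortalized with TERT plus LT and ST oncogenes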
# [10] = C. albicans growth with fluconazole, confirmation, fluorescence, retest (AID 2467); assay type: functional, cell-based
# [11] = cytotoxicity toward DRD oncogenic fibroblasts, dose response, cell-based, non-viral oncogenic, luminescence (AID 1934); assay type: functional; conditions: Homo sapiens
# BJ [12] = experiment: cells; assay type: functional, cell-based; conditions: Homo sapiens
# [13] = inhibitors of HIV Env-driven cell fusion, dose response, cherry-pick (AID 652057); assay type: functional, cell-based
compound,measurement,setting,value
COc1cc(/C=C(/C#N)C(=O)Nc2ccccc2)ccc1OCc1ccc(C(=O)O)cc1,IC50,[1],3.34 µM (active)
O=C(CNC(=O)c1ccc([N+](=O)[O-])cc1)c1ccccc1,AC50,Cytochrome P450 2C19,2.82 µM (inconclusive)
same,AC50,Cytochrome P450 2C9,inconclusive
CC(=O)Nc1cc(S(=O)(=O)Nc2ccccc2)c(C)cc1C,AC50,Cytochrome P450 2C9,inconclusive
same,AC50,Cytochrome P450 3A4,28.2 µM (inconclusive)
C[C@H]1CN([C@@H](C)CO)S(=O)(=O)c2ccc(C#Cc3ccc(F)cc3)cc2O[C@H]1CN(C)C(=O)NC1CCCCC1,AC50,Paired box protein Pax-8,8.09 µM (active)
same,AC50,[2],44.5 µM (active)
O=C(OCC(=O)N1CCN(c2ccccc2)CC1)c1ccc(Cl)cc1[N+](=O)[O-],IC50,cells [3],> 50 µM (active)
COc1ccc(CCNC(=O)CC(NC(=O)c2ccccc2Cl)c2ccccc2)cc1 (centres undefined),EC50,cells [4],> 350 µM (not active)
same,EC50,cells [5],> 350 µM (not active)
O=C(c1cccnc1)c1cc2ccccc2[nH]1,EC50,cells [4],31.3 µM (active)
same,EC50,cells [5],> 350 µM (not active)
NC(=NOC(=O)CC1CCCCC1)c1cccc([N+](=O)[O-])c1,IC50,Fatty acid synthase [6],7.05 µM (active)
same,IC50,Fatty acid synthase [7],8.29 µM (active)
CCNC(=O)C[C@@H]1CC[C@@H]2[C@@H](COc3ccc(NC(=O)Cc4cccs4)cc3C(=O)N2C)O1,AC50,[8],41.5 µM (active)
CCOc1ccccc1/C=C(\C#N)C(N)=O,AC50,Cytochrome P450 2C9,inconclusive
CCOc1ccccc1C1C2=C(O)OCC2=Nc2cc3c(cc21)OCO3 (centres undefined),EC50,BJ [9],0.442 µM (active)
same,AC50,Paired box protein Pax-8,2.15 µM (active)
same,EC50,[10],> 38 µM (not active)
same,EC50,[11],0.468 µM (active)
same,EC50,BJ [12],1.11 µM (inconclusive)
Oc1c(Br)c(Br)c(Br)c(Br)c1Br [PENTABROMOPHENOL],IC50,Fatty acid synthase [6],6.27 µM (active)
same,IC50,Fatty acid synthase [7],6.52 µM (active)
O=C(C[C@@H]1C[C@H]2c3cc(NC(=O)Nc4ccc(C(F)(F)F)cc4)ccc3O[C@H]2[C@H](CO)O1)NCc1ccc(Cl)cc1,AC50,Paired box protein Pax-8,17.5 µM (active)
same,AC50,[2],68.2 µM (active)
CCOc1ccc(-c2ccc(NS(=O)(=O)c3cc([N+](=O)[O-])c(C)c([N+](=O)[O-])c3)cc2)nn1,IC50,Fatty acid synthase [6],0.872 µM (active)
same,IC50,Fatty acid synthase [7],0.706 µM (active)
Cc1ccc(S(=O)(=O)Nc2cccc(-c3ccc(N4CCCCCC4)nn3)c2)cc1,IC50,Fatty acid synthase [6],6.68 µM (active)
same,IC50,Fatty acid synthase [7],3.42 µM (active)
O=C(COC(=O)c1ccc(S(=O)(=O)NCc2ccco2)cc1)Nc1ccc(Cl)cn1,IC50,[1],4.79 µM (active)
Cc1cc(O)nc(SCC(=O)Nc2nonc2C)n1,EC50,cells [4],> 350 µM (not active)
same,EC50,cells [5],> 350 µM (not active)
O=C(C[C@H]1CC[C@@H](NC(=O)c2cccc(F)c2)[C@H](CO)O1)NCc1ccc(Oc2ccccc2)cc1,AC50,[8],1.17 µM (active)
same,AC50,[13],1.2 µM (active)
